Measurements from patent US5624957A, “Rary-specific retinobenzoic acid derivatives” (Bristol-Myers Squibb Company, priority 1995, dated 1997).

Tests used:
Rhino Mouse Utriculi = assay: Rhino mouse model, reduction of utriculi (comedolytic activity); format: in vivo; conditions: for ED30 (the concentration producing a 30% reduction in the rhino mouse utriculi): interpolation of regression lines of log concentration-percent reduction plots
Procedure: When representative compounds of the present invention were tested using that same procedure, the ED30 (the concentration producing a 30% reduction in the rhino mouse utriculi) values calculated by interpolation of the regression lines of the log concentration-percent reduction plots were as follows: […]

RARα = target: T1, RARα (Homo sapiens, UniProt P10276); assay: Receptor transactivation assay, RARα (CAT reporter, HeLa cells); format: cell-based
T1 construct: expressed in transfected cells; host or cells: HeLa
T1 sequence (P10276 1-462): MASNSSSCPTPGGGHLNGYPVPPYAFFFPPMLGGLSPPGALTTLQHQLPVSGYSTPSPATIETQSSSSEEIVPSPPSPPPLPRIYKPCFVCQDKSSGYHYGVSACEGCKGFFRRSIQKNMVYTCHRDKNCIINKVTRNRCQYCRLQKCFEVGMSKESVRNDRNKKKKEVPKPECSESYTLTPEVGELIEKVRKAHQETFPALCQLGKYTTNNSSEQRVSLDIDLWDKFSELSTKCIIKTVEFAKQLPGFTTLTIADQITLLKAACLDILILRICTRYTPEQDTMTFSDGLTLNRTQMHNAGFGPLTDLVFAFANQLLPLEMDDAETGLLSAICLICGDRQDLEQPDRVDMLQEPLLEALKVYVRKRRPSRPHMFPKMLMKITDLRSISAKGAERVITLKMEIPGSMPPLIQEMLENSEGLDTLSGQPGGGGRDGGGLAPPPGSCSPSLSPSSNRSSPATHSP
Procedure: (§1) Activation of just one receptor and failure to activate another is the basis for selectivity/specificity.
(§2) In the retinoid transactivation assay, HeLa cells are co-transfected with DNA encoding RAR α, β, or γ, and an RAR-responsive CAT (chloramphenicol acetyltransferase) reporter gene. Retinoid efficacy is measured by the concentration of induced CAT gene product as determined by ELISA assay. […] The mean EC50 value for each of the receptors is calculated using a computer generated induced-fit program.

RARβ = target: T2, RARβ (Homo sapiens, UniProt P10826); assay: Receptor transactivation assay, RARβ (CAT reporter, HeLa cells); format: cell-based
T2 construct: expressed in transfected cells; host or cells: HeLa
T2 sequence (P10826 1-448 isoform P10826-2): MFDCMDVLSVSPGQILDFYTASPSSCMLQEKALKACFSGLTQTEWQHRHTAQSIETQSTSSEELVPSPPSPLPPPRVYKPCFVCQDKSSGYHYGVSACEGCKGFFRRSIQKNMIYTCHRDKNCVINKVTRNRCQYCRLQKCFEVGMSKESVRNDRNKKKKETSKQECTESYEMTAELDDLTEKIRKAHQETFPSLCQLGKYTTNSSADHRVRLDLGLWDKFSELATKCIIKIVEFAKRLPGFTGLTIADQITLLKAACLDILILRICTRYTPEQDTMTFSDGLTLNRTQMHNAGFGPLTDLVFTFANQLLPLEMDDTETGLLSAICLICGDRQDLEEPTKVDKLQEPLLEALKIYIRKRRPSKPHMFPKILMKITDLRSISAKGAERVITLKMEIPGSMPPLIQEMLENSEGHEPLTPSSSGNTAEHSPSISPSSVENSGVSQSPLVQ
Procedure: as §1, §2

RARγ = target: T3, RARγ (Homo sapiens, UniProt P13631); assay: Receptor transactivation assay, RARγ (CAT reporter, HeLa cells); format: cell-based
T3 construct: expressed in transfected cells; host or cells: HeLa
T3 sequence (P13631 1-454): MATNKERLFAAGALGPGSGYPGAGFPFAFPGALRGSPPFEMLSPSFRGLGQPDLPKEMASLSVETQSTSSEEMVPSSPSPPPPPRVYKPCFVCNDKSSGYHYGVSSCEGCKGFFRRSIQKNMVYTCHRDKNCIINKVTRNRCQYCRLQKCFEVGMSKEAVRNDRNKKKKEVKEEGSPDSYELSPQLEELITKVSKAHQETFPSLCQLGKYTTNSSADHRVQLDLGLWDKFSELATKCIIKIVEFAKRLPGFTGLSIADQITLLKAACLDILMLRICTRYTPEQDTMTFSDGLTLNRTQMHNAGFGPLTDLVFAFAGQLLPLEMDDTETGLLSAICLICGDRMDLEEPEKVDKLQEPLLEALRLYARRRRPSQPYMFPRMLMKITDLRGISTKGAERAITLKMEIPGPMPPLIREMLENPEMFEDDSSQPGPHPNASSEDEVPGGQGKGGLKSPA
Procedure: as §1, §2

[1] = rat, in vivo, po, 150 mg/kg
Text: Compounds having the beneficial pharmacological effects of retinoids but without retinoid-induced hypertriglyceridemia would be especially desirable for oral retinoid therapy.

[2] = systemic use; cited from earlier work
RAR α, β, or γ = assay: Receptor transactivation assay, RAR subtypes taken together; format: cell-based; conditions: read-out: EC50 for retinoic acid; varies for given receptors; usually in this range
Text: Activation of just one receptor and failure to activate another is the basis for selectivity/specificity. In our definitions, "selectivity" means that the compound preferentially activates one receptor but also activates at least one other at a higher concentration and "specificity" means that the compound activates only one receptor in the concentration range tested. The details of the receptor-based transactivation assay are disclosed in the literature, e.g. see Nature 1988, 332, 850-853.
as §2, with “assay. Retinoic acid (RA) is used as a reference compound.” for “assay.”
"N.A." means that the compound had no transactivation at any dose tested (up to 10^-6 M).

Transactivation ratio γ (EC50 of test compound / EC50 of retinoic acid) (RARγ)	Compound	ED30 (the concentration producing a 30% reduction in the rhino mouse utriculi) (Rhino Mouse Utriculi)	other results
	CC1(C)CCC(C)(C)c2cc(C(O)C(=O)Nc3ccc(C(=O)O)cc3F)ccc21 (stereo not shown) [Example 1, 3-Fluoro-4(2'(5",6",7",8"-tetrahydro-5",5",8",8"-tetramethyl-2"-naphthyl)-2'-hydroxy)acetamidobenzoic acid]	155 µM	
6.7	CC1(C)CCC(C)(C)c2cc(C(O)C(=O)Nc3ccc(C(=O)O)cc3)ccc21 (stereo not shown) [Example 2]		Transactivation ratio α (EC50 of test compound / EC50 of retinoic acid) (RARα): 66.7; Transactivation ratio β (EC50 of test compound / EC50 of retinoic acid) (RARβ): 50
13.3	CC1(C)CCC(C)(C)c2cc(C(O)C(=O)Nc3ccc(C(=O)O)cc3Cl)ccc21 (stereo not shown) [Example 6]		
	CC1=C(/C=C/C(C)=C/C=C/C(C)=C\C(=O)O)C(C)(C)CCC1 [13-cis-retinoic acid]		Increase in serum triglyceride levels [1]: ~ 350%; Elevation in triglyceride levels, fraction of patients treated [2]: […]
40	CC1(C)CCC(C)(C)c2cc(C(O)C(=O)Nc3ccc(C(=O)O)cc3O)ccc21 (stereo not shown) [Example 7]		Reduction in rhino mouse utriculi (Rhino Mouse Utriculi; at 16.5 mM): 32%
66.7	Cc1cc(C(=O)O)ccc1NC(=O)C(O)c1ccc2c(c1)C(C)(C)CCC2(C)C (stereo not shown) [Example 8]	1050 µM	
